pIC50: −log10 of the molar value.
Columns and labels:
[1] = biological target: T1, Aurora kinase B (Homo sapiens, UniProt Q96GD4); test: Inhibition of recombinant aurora B at 1 uM
[2] = biological target: T2, Aurora kinase A (Homo sapiens, UniProt O14965); test: Inhibition of recombinant aurora A
T2 sequence (O14965 whole entry): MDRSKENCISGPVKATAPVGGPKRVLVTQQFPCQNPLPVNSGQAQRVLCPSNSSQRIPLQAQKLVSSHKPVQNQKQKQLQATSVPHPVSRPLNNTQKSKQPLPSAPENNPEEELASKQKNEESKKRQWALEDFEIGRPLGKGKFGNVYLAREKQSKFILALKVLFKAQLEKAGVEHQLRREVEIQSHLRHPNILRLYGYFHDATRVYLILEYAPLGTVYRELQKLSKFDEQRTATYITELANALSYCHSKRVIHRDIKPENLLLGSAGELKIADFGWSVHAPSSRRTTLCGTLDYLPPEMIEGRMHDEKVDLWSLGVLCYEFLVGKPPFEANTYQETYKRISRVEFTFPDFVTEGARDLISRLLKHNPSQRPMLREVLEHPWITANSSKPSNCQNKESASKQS

[3] = tested on: HT-29; test: Antiproliferative activity against human HT-29 cells after 72 hrs by cell titer 96 assay; type: functional, cell-based; details: HT-29, 72 h
[4] = biological target: T1, Aurora kinase B; test: Inhibition of recombinant aurora B
[5] = tested on: HeLa; test: Antiproliferative activity against human HeLa cells after 72 hrs by cell titer 96 assay; type: functional, cell-based
[6] = tested on: HCT-116; test: Antiproliferative activity against human HCT116 cells after 72 hrs by cell titer 96 assay; type: functional, cell-based; details: HCT-116, 72 h
[7] = tested on: HCT-116; test: Antiproliferative activity against human HCT116 cells after 72 hrs by [3H]thymidine incorporation assay; type: functional, cell-based
[8] = biological target: T3, Aurora kinase A (Homo sapiens) (UniProt O14965); test: Inhibition of recombinant aurora A at 1 uM
T3 sequence (whole entry): T2 sequence (O14965 whole entry)

T1 sequence (Q96GD4 whole entry): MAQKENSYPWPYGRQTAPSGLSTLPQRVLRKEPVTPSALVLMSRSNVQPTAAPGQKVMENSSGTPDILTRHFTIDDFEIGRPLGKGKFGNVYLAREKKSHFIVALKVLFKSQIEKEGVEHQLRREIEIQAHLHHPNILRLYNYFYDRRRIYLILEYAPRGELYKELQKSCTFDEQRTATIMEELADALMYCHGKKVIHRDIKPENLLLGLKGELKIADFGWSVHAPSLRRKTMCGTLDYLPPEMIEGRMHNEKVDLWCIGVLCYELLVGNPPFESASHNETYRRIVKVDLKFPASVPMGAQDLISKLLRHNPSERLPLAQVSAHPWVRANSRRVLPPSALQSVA

SMILES: O=C(O)CCc1c(/C=C2\C(=O)Nc3ccc([N+](=O)[O-])cc32)[nH]c2c1C(=O)CCC2
- inhibition [1]: 3.4%

SMILES: CC1(C)CC(=O)c2c([nH]c(/C=C3\C(=O)Nc4ccc(F)cc43)c2CCC(=O)O)C1
- pIC50 [2]: 6.34
- inhibition [1]: 17.3%

SMILES: CCN(CC)CCCc1c(/C=C2\C(=O)Nc3ccc(NS(=O)(=O)c4ccccc4)cc32)[nH]c2c1C(=O)CCC2
- pIC50 [2]: 5.61
- pIC50 [3]: < 5.00
- pIC50 [4]: 6.45
- pIC50 [5]: 5.06
- pIC50 [6]: < 5.00

SMILES: COc1ccc(-c2ccc3c(c2)/C(=C/c2[nH]c4c(c2CCC(=O)O)C(=O)CCC4)C(=O)N3)cc1OC
- inhibition [1]: 5.1%

SMILES: O=C(O)CCc1c(/C=C2\C(=O)Nc3ccc(NS(=O)(=O)c4ccccc4)cc32)[nH]c2c1C(=O)CCC2
- pIC50 [2]: 7.92
- pIC50 [3]: < 5.00
- pIC50 [7]: < 5.00
- pIC50 [6]: < 5.00

SMILES: CN(C)S(=O)(=O)c1ccc2c(c1)/C(=C/c1[nH]c3c(c1CCC(=O)O)C(=O)CCC3)C(=O)N2
- pIC50 [2]: 7.68

SMILES: O=C(O)CCc1c(/C=C2\C(=O)Nc3ccc(S(=O)(=O)Cc4ccccc4)cc32)[nH]c2c1C(=O)CCC2
- inhibition [1]: 11.2%

SMILES: O=C(O)CCc1c(/C=C2\C(=O)Nc3ccc(S(=O)(=O)N4CCc5ccccc54)cc32)[nH]c2c1C(=O)CCC2
- pIC50 [2]: 8.10

SMILES: C=CCS(=O)(=O)c1ccc2c(c1)/C(=C/c1[nH]c3c(c1CCC(=O)O)C(=O)CCC3)C(=O)N2
- pIC50 [2]: 7.41
- inhibition [1]: 32.5%

SMILES: CCS(=O)(=O)c1ccc2c(c1)/C(=C/c1[nH]c3c(c1CCC(=O)O)C(=O)CCC3)C(=O)N2
- pIC50 [2]: 7.24
- inhibition [1]: 7%

SMILES: O=C(O)CCc1c(/C=C2\C(=O)Nc3ccc(S(=O)(=O)N4CCCC4)cc32)[nH]c2c1C(=O)CCC2
- pIC50 [2]: 8.15

SMILES: O=C(O)CCc1c(/C=C2\C(=O)Nc3ccccc32)[nH]c2c1C(=O)CCC2
- inhibition [1]: 13%

SMILES: O=C(O)CCc1c(/C=C2\C(=O)Nc3ccc(NS(=O)(=O)c4ccc5ccccc5c4)cc32)[nH]c2c1C(=O)CCC2
- inhibition [8]: 40.6%
- inhibition [1]: 21%

SMILES: CCS(=O)(=O)Nc1ccc2c(c1)/C(=C/c1[nH]c3c(c1CCC(=O)O)C(=O)CCC3)C(=O)N2
- pIC50 [2]: 7.47
- inhibition [1]: 7.3%

SMILES: CNC(=O)CCc1c(/C=C2\C(=O)Nc3ccc(NS(=O)(=O)c4ccccc4)cc32)[nH]c2c1C(=O)CCC2
- pIC50 [2]: 6.93
- pIC50 [3]: < 5.00
- pIC50 [4]: 6.49
- pIC50 [5]: < 5.00
- pIC50 [6]: < 5.00

SMILES: CCN(CC)CCCc1c(/C=C2\C(=O)Nc3ccc(S(=O)(=O)N4CCc5ccccc54)cc32)[nH]c2c1C(=O)CCC2
- pIC50 [2]: 5.63
- pIC50 [3]: 5.67
- pIC50 [4]: 6.21
- pIC50 [5]: 5.49
- pIC50 [6]: 5.58

SMILES: COc1cc(-c2ccc3c(c2)/C(=C/c2[nH]c4c(c2CCC(=O)O)C(=O)CCC4)C(=O)N3)ccc1O
- inhibition [1]: 12.4%

SMILES: O=C(O)CCc1c(/C=C2\C(=O)Nc3ccc(F)cc32)[nH]c2c1C(=O)CCC2
- inhibition [1]: 11.6%

SMILES: CC(=O)Nc1ccc2c(c1)/C(=C/c1[nH]c3c(c1CCC(=O)O)C(=O)CCC3)C(=O)N2
- inhibition [1]: 12.8%

SMILES: O=C1Nc2ccc(NS(=O)(=O)c3ccccc3)cc2/C1=C/c1[nH]c2c(c1CCC(=O)N1CCCC1)C(=O)CCC2
- pIC50 [2]: 6.66
- pIC50 [3]: < 5.00
- pIC50 [4]: 6.14
- pIC50 [5]: < 5.00
- pIC50 [6]: < 5.00

SMILES: CC(=O)c1c(C)[nH]c(/C=C2\C(=O)Nc3ccc(F)cc32)c1CCC(=O)O
- pIC50 [2]: 6.44
- inhibition [1]: 17.5%

SMILES: O=C(O)CCc1c(/C=C2\C(=O)Nc3ccc(Br)cc32)[nH]c2c1C(=O)CCC2
- inhibition [1]: 6.8%

SMILES: O=C(O)CCc1c(/C=C2\C(=O)Nc3ccc(S(=O)(=O)Cc4ccc(F)cc4)cc32)[nH]c2c1C(=O)CCC2
- inhibition [1]: 15.5%

SMILES: CN(C)CCCc1c(/C=C2\C(=O)Nc3ccc(S(=O)(=O)N4CCc5ccccc54)cc32)[nH]c2c1C(=O)CCC2
- pIC50 [2]: 5.64
- pIC50 [3]: 6.12
- pIC50 [4]: 6.51
- pIC50 [5]: 5.79
- pIC50 [6]: 6.05

SMILES: O=C(O)CCc1c(/C=C2\C(=O)Nc3ccc(NC(=O)c4ccccc4)cc32)[nH]c2c1C(=O)CCC2
- pIC50 [2]: 6.14
- inhibition [1]: 14.2%

SMILES: O=C1Nc2ccc(NS(=O)(=O)c3ccccc3)cc2/C1=C/c1[nH]c2c(c1CCCN1CCCC1)C(=O)CCC2
- pIC50 [2]: 5.66
- pIC50 [3]: 5.48
- pIC50 [4]: 6.51
- pIC50 [5]: < 5.00
- pIC50 [6]: < 5.00

SMILES: CCOC(=O)CCc1c(/C=C2\C(=O)Nc3ccc(F)cc32)[nH]c2c1C(=O)CCC2
- inhibition [1]: 3%

SMILES: NS(=O)(=O)c1ccc2c(c1)/C(=C/c1[nH]c3c(c1CCC(=O)O)C(=O)CCC3)C(=O)N2
- inhibition [1]: 34.1%

SMILES: CNS(=O)(=O)c1ccc2c(c1)/C(=C/c1[nH]c3c(c1CCC(=O)O)C(=O)CCC3)C(=O)N2
- inhibition [1]: 2.6%

SMILES: O=C1Nc2ccc(S(=O)(=O)N3CCc4ccccc43)cc2/C1=C/c1[nH]c2c(c1CCC(=O)N1CCOCC1)C(=O)CCC2
- pIC50 [2]: 6.25
- pIC50 [3]: < 5.00
- pIC50 [4]: 5.50
- pIC50 [5]: < 5.00
- pIC50 [6]: < 5.00

SMILES: O=C1Nc2ccc(NS(=O)(=O)c3ccccc3)cc2/C1=C/c1[nH]c2c(c1CCC(=O)N1CCOCC1)C(=O)CCC2
- pIC50 [2]: 6.55
- pIC50 [3]: < 5.00
- pIC50 [4]: 6.04
- pIC50 [5]: < 5.00
- pIC50 [6]: < 5.00

SMILES: O=C(O)CCc1c(/C=C2\C(=O)Nc3ccc(F)cc32)[nH]c2c1C(=O)CCCC2
- inhibition [8]: 45.5%
- inhibition [1]: 2%

SMILES: CCOC(=O)CCc1c(/C=C2\C(=O)Nc3ccccc32)[nH]c2c1C(=O)CCC2
- inhibition [1]: 2.3%

From ChEMBL document CHEMBL1212904, “Discovery of pyrrole-indoline-2-ones as Aurora kinase inhibitors with a different inhibition profile” (J Med Chem, 2010)
